What follows are compounds tested against T1, human B1R (Homo sapiens, UniProt P46663) (assay: Functional assay at bradykinin receptor 1 (B1R): Ca2+ fluorescence (Fluo-4) in FLIPR/Novostar, antagonist mode). Details: test substance 10 µM; CHO K1 cells stably transfected with human B1R gene (hB1R-Zellen); agonist Lys-Des-Arg9-Bradykinin at EC80; % inhibition relative to maximal achievable inhibition; read-out: % Inhibierung (human B1R) bei 10 µM.
T1 construct: expressed in transfected cells; host or cells: CHO K1 cells (Chinese Hamster Ovary), stably transfected
T1 sequence (P46663 1-353): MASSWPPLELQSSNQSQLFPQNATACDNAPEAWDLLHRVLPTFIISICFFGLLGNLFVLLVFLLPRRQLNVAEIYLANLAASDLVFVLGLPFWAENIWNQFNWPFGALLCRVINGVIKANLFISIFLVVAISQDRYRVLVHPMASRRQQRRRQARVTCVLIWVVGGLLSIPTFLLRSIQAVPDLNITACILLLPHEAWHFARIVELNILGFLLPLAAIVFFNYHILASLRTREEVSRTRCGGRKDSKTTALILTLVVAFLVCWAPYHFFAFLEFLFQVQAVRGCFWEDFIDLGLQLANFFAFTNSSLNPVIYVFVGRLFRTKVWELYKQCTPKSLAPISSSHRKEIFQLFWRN
Assay type: cell-based
Procedure, shortened: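 Antagonism read as suppression of the Ca2+ rise in Fluo-4-loaded, hB1R-transfected CHO K1 cells when Lys-Des-Arg9-bradykinin (EC80) follows a 6–20 min compound preincubation. Maximal fluorescence counts, measured on FLIPR or Novostar, yield % inhibition relative to maximum; IC50 values come from concentration series run in duplicate or triplicate.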
`COc1cc(C)c(S(=O)(=O)Cc2noc(CC(=O)N(C)C3CCN(Cc4ccnc(N5CCCC5)c4)CC3)n2)c(C)c1` [SC-57, 2-[3-[[(4-Methoxy-2,6-dimethyl-phenyl)sulfonyl]-methyl]-[1,2,4]oxadiazol-5-yl]-N-methyl-N-[1-[(2-pyrrolidin-1-yl-pyridin-4-yl)-methyl]-piperidin-4-yl]-acetamid] was tested, and the inhibition at 10 µM was 100%.
Compound `COc1cc(C)c(S(=O)(=O)Cc2noc(CC(=O)N(C)C3CCC(N4CCN(C)CC4)CC3)n2)c(C)c1` (stereo not shown) [SC-58, 2-[3-[[(4-Methoxy-2,6-dimethyl-phenyl)sulfonyl]-methyl]-[1,2,4]oxadiazol-5-yl]-N-methyl-N-[4-(4-methyl-piperazin-1-yl)-cyclohexyl]-acetamid] has an inhibition at 10 µM of 100%.
`COc1cc(C)c(S(=O)(=O)Cc2noc(C(=O)N3CCN(Cc4ccc(OC)nc4)CC3)n2)c(C)c1` [SC-59, [3-[[(4-Methoxy-2,6-dimethyl-phenyl)sulfonyl]-methyl]-[1,2,4]oxadiazol-5-yl]-[4-[(6-methoxy-pyridin-3-yl)-methyl]-piperazin-1-yl]-methanon] gave an inhibition at 10 µM of 100%.
With `COc1cc(C)c(S(=O)(=O)Cc2noc(C(=O)N3CCN(Cc4ccnc(N5CCCC5)c4)CC3)n2)c(C)c1` [SC-60, [3-[[(4-Methoxy-2,6-dimethyl-phenyl)sulfonyl]-methyl]-[1,2,4]oxadiazol-5-yl]-[4-[(2-pyrrolidin-1-yl-pyridin-4-yl)-methyl]-piperazin-1-yl]-methanon] the inhibition at 10 µM was 99%.
With `COc1cc(C)c(S(=O)(=O)Cc2noc(C(=O)N3CCN(Cc4ccc(N5CCCC5)nc4)CC3)n2)c(C)c1` [SC-61, [3-[[(4-Methoxy-2,6-dimethyl-phenyl)sulfonyl]-methyl]-[1,2,4]oxadiazol-5-yl]-[4-[(6-pyrrolidin-1-yl-pyridin-3-yl)-methyl]-piperazin-1-yl]-methanon] the inhibition at 10 µM was 100%.
`COc1cc(C)c(S(=O)(=O)Cc2noc(CC(=O)N3CCN(Cc4ccc(N5CCCC5)nc4)CC3)n2)c(C)c1` [SC-62, 2-[3-[[(4-Methoxy-2,6-dimethyl-phenyl)sulfonyl]-methyl]-[1,2,4]oxadiazol-5-yl]-1-[4-[(6-pyrrolidin-1-yl-pyridin-3-yl)-methyl]-piperazin-1-yl]-ethanon] was tested, and the inhibition at 10 µM was 100%.
With `COc1cc(C)c(S(=O)(=O)Cc2noc(CC(=O)N(C)C3CCN(c4ncnc5ccccc45)CC3)n2)c(C)c1` [SC-63, 2-[3-[[(4-Methoxy-2,6-dimethyl-phenyl)sulfonyl]-methyl]-[1,2,4]oxadiazol-5-yl]-N-methyl-N-(1-chinazolin-4-yl-piperidin-4-yl)-acetamid] the inhibition at 10 µM was 100%.
`COc1cc(C)c(S(=O)(=O)Cc2noc(CC(=O)N(C)C3CCC(N4CCC(OC)CC4)CC3)n2)c(C)c1` (stereo not shown) [SC-64, 2-[3-[[(4-Methoxy-2,6-dimethyl-phenyl)sulfonyl]-methyl]-[1,2,4]oxadiazol-5-yl]-N-[4-(4-methoxy-piperidin-1-yl)-cyclohexyl]-N-methyl-acetamid] was tested, and the inhibition at 10 µM was 100%.
Compound `COc1cc(C)c(S(=O)(=O)Cc2noc(CC(=O)N(C)C3CCN(Cc4ccc(N5CCCC5)nc4)CC3)n2)c(C)c1` [SC-65, 2-[3-[[(4-Methoxy-2,6-dimethyl-phenyl)sulfonyl]-methyl]-[1,2,4]oxadiazol-5-yl]-N-methyl-N-[1-[(6-pyrrolidin-1-yl-pyridin-3-yl)-methyl]-piperidin-4-yl]-acetamid] has an inhibition at 10 µM of 100%.
`COc1cc(C)c(S(=O)(=O)Cc2noc(CC(=O)N(C)C3CCN(c4ccnc(N(C)C)n4)CC3)n2)c(C)c1` [SC-66, N-[1-(2-Dimethylamino-pyrimidin-4-yl)-piperidin-4-yl]-2-[3-[[(4-methoxy-2,6-dimethyl-phenyl)-sulfonyl]-methyl]-[1,2,4]oxadiazol-5-yl]-N-methyl-acetamid] showed an inhibition at 10 µM of 100%.
`COc1cc(C)c(S(=O)(=O)Cc2noc(CC(=O)N(C)C3CCN(c4ccnc(N(C)C)c4)CC3)n2)c(C)c1` [SC-67, N-[1-(2-Dimethylamino-pyridin-4-yl)-piperidin-4-yl]-2-[3-[[(4-methoxy-2,6-dimethyl-phenyl)-sulfonyl]-methyl]-[1,2,4]oxadiazol-5-yl]-N-methyl-acetamid] gave an inhibition at 10 µM of 100%.
With `COc1cc(C)c(S(=O)(=O)Cc2noc(C(=O)N(C)C3CCN(c4ccnc(N(C)C)n4)CC3)n2)c(C)c1` [SC-68, N-[1-(2-Dimethylamino-pyrimidin-4-yl)-piperidin-4-yl]-3-[[(4-methoxy-2,6-dimethyl-phenyl)sulfonyl]-methyl]-N-methyl-[1,2,4]oxadiazol-5-carbonsäure amid] the inhibition at 10 µM was 100%.
Compound `COc1cc(C)c(S(=O)(=O)Cc2noc(C(=O)N(C)C3CCN(c4ccnc(N(C)C)c4)CC3)n2)c(C)c1` [SC-69, N-[1-(2-Dimethylamino-pyridin-4-yl)-piperidin-4-yl]-3-[[(4-methoxy-2,6-dimethyl-phenyl)sulfonyl]-methyl]-N-methyl-[1,2,4]oxadiazol-5-carbonsäure amid] has an inhibition at 10 µM of 100%.
`COc1cc(C)c(S(=O)(=O)Cc2noc(CC(=O)N(C)C3CCN(c4ccncc4F)CC3)n2)c(C)c1` [SC-70, N-[1-(3-Fluor-pyridin-4-yl)-piperidin-4-yl]-2-[3-[[(4-methoxy-2,6-dimethyl-phenyl)sulfonyl]-methyl]-[1,2,4]oxadiazol-5-yl]-N-methyl-acetamid] was tested, and the inhibition at 10 µM was 100%.
`COc1cc(C)c(S(=O)(=O)Cc2noc(CC(=O)N(C)C3CCN(Cc4cc(C)no4)CC3)n2)c(C)c1` [SC-72, 2-[3-[[(4-Methoxy-2,6-dimethyl-phenyl)sulfonyl]-methyl]-[1,2,4]oxadiazol-5-yl]-N-methyl-N-[1-[(3-methyl-isoxazol-5-yl)-methyl]-piperidin-4-yl]-acetamid] was tested, and the inhibition at 10 µM was 100%.
`COc1cc(C)c(S(=O)(=O)Cc2noc(C(=O)N(C)C3CCN(c4ccncc4F)CC3)n2)c(C)c1` [SC-82, N-[1-(3-Fluor-pyridin-4-yl)-piperidin-4-yl]-3-[[(4-methoxy-2,6-dimethyl-phenyl)sulfonyl]-methyl]-N-methyl-[1,2,4]oxadiazol-5-carbonsäure amid] gave an inhibition at 10 µM of 98%.
In the case of `COc1cc(C)c(S(=O)(=O)Cc2c(C)nn(CC(=O)N(C)[C@H]3CCC[C@@H](N4CCN(C)CC4)C3)c2C)c(C)c1` [SC-83, 2-[4-[[(4-Methoxy-2,6-dimethyl-phenyl)sulfonyl]-methyl]-3,5-dimethyl-1H-pyrazol-1-yl]-N-methyl-N-[(1S,3R)-3-(4-methyl-piperazin-1-yl)-cyclohexyl]-acetamid], the inhibition at 10 µM is reported as 100%.
`COc1cc(C)c(S(=O)(=O)Cc2cn(CC(=O)N(C)[C@H]3CCC[C@@H](N4CCN(C)CC4)C3)nn2)c(C)c1` [SC-84, 2-[4-[[(4-Methoxy-2,6-dimethyl-phenyl)sulfonyl]-methyl]-1H-[1,2,3]triazol-1-yl]-N-methyl-N-[(1S,3R)-3-(4-methyl-piperazin-1-yl)-cyclohexyl]-acetamid] gave an inhibition at 10 µM of 100%.
With `COc1cc(C)c(S(=O)(=O)Cc2noc(CC(=O)N(C)C3CCN(c4ccncc4)C(=O)C3)n2)c(C)c1` (stereo not shown) [SC-85, 2-[3-[[(4-Methoxy-2,6-dimethyl-phenyl)sulfonyl]-methyl]-[1,2,4]oxadiazol-5-yl]-N-methyl-N-(2-oxo-1-pyridin-4-yl-piperidin-4-yl)-acetamid] the inhibition at 10 µM was 100%.
Work on `COc1cc(C)c(S(=O)(=O)Cc2nnc(C(=O)N3CCC(CN4CCN(C)CC4)C3)o2)c(C)c1` (stereo not shown) [SC-86, [5-[[(4-Methoxy-2,6-dimethyl-phenyl)sulfonyl]-methyl]-[1,3,4]oxadiazol-2-yl]-[3-[(4-methyl-piperazin-1-yl)-methyl]-pyrrolidin-1-yl]-methanon] yielded an inhibition at 10 µM of 100%.
In the case of `COc1cc(C)c(S(=O)(=O)Cc2nnc(C(=O)NC3CCNCC3(C)C)o2)c(C)c1` (stereo not shown) [SC-87, N-(3,3-Dimethyl-piperidin-4-yl)-5-[[(4-methoxy-2,6-dimethyl-phenyl)sulfonyl]-methyl]-[1,3,4]oxadiazol-2-carbonsäure amid], the inhibition at 10 µM is reported as 98%.
`COc1cc(C)c(S(=O)(=O)Cc2nc(C(=O)N3CCC(CN4CCN(C)CC4)C3)no2)c(C)c1` (stereo not shown) [SC-88, [5-[[(4-Methoxy-2,6-dimethyl-phenyl)sulfonyl]-methyl]-[1,2,4]oxadiazol-3-yl]-[3-[(4-methyl-piperazin-1-yl)-methyl]-pyrrolidin-1-yl]-methanon] was tested, and the inhibition at 10 µM was 100%.
Work on `COc1cc(C)c(S(=O)(=O)Cc2nc(C(=O)N(C)[C@H]3CCC[C@@H](N4CCN(C)CC4)C3)no2)c(C)c1` [SC-89, 5-[[(4-Methoxy-2,6-dimethyl-phenyl)sulfonyl]-methyl]-N-methyl-N-[(1S,3R)-3-(4-methyl-piperazin-1-yl)-cyclohexyl]-[1,2,4]oxadiazol-3-carbonsäure amid] yielded an inhibition at 10 µM of 100%.
`COc1cc(C)c(S(=O)(=O)Cc2c(C)nn(CC(=O)N3CCC(CN4CCN(C)CC4)C3)c2C)c(C)c1` (stereo not shown) [SC-92, 2-[4-[[(4-Methoxy-2,6-dimethyl-phenyl)sulfonyl]-methyl]-3,5-dimethyl-1H-pyrazol-1-yl]-1-[3-[(4-methyl-piperazin-1-yl)-methyl]-pyrrolidin-1-yl]-ethanon] gave an inhibition at 10 µM of 90%.
Work on `COc1cc(C)c(S(=O)(=O)Cc2cn(CC(=O)N3CCC(CN4CCN(C)CC4)C3)nn2)c(C)c1` (stereo not shown) [SC-93, 2-[4-[[(4-Methoxy-2,6-dimethyl-phenyl)sulfonyl]-methyl]-1H-[1,2,3]triazol-1-yl]-1-[3-[(4-methyl-piperazin-1-yl)-methyl]-pyrrolidin-1-yl]-ethanon] yielded an inhibition at 10 µM of 100%.
